Data as given in PubChem BioAssay AID651817 (Broad Institute, 2012).
Activity calls are given as the source filed them.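 Rule for the calls: active = compound whose fitted luminescence drop, meaning cytotoxicity, reaches half effect at most twice its top valid tested dose; inconclusive = flat curve with a moderate drop, or an unreliable fit; inactive = rise instead of drop, flat response, or weaker potency.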

Assay: mouse fibroblast viability loss – cell-based, cherry-pick samples, set 2, cytotoxicity control for T. cruzi growth inhibitor project, dose response (AID 651817)
Conditions: NIH/3T3 viability, ATP luminescence (CellTiter-Glo), 90 h; at 4.2 µM (top of the series)

Question: With `COc1ccc(CN(C)C[C@H]2Oc3c(NC(=O)Nc4ccc(C(F)(F)F)cc4)cccc3C(=O)N([C@H](C)CO)C[C@H]2C)cc1` as the compound, how does the activity change, negative = cytotoxicity read?
Answer: 6.55% (inactive)

Same assay, conditions: NIH/3T3 viability, ATP luminescence (CellTiter-Glo), 90 h; at 19.5 µM (top of the series)

Question: With `Cc1ccc(S(=O)(=O)Nc2ccc3c(c2)CC(=O)N([C@H](C)CO)C[C@H](C)[C@@H](CN(C)S(=O)(=O)c2ccc(Cl)cc2)O3)cc1` as the compound, how does the activity change, negative = cytotoxicity read?
Answer: -14.6% (inactive)

Question: For `C[C@@H]1CN([C@@H](C)CO)C(=O)c2cccc(NC(=O)c3ccncc3)c2O[C@H]1CN(C)Cc1ccc(C(F)(F)F)cc1`, which activity change, negative = cytotoxicity is on record?
Answer: 0.884% (inactive)

Question: With `Cc1ccc(S(=O)(=O)N(C)C[C@@H]2Oc3ccc(NS(=O)(=O)c4ccccc4)cc3CC(=O)N([C@@H](C)CO)C[C@@H]2C)cc1` as the compound, how does the activity change, negative = cytotoxicity read?
Answer: 9.31% (inactive)

Question: Which activity change, negative = cytotoxicity does the source give for `C[C@@H]1CN([C@H](C)CO)C(=O)Cc2cc(NS(=O)(=O)c3ccc(F)cc3)ccc2O[C@H]1CN(C)Cc1ccc(Cl)c(Cl)c1` here?
Answer: -17.9% (inactive)

Question: For `Cc1noc(C)c1NC(=O)Nc1cccc2c1O[C@@H](CN(C)S(C)(=O)=O)[C@@H](C)CN([C@@H](C)CO)C2=O`, which activity change, negative = cytotoxicity is on record?
Answer: -35% (inactive)

Question: Which activity change, negative = cytotoxicity does the source give for `COc1ccc(CN(C)C[C@H]2Oc3c(NC(=O)c4ccncc4)cccc3C(=O)N([C@@H](C)CO)C[C@@H]2C)cc1` here?
Answer: 5.41% (inactive)

Question: For `C[C@H](CO)N1C[C@H](C)[C@@H](CN(C)S(=O)(=O)c2ccc(Cl)cc2)Oc2ccc(NS(=O)(=O)c3ccc(Cl)cc3)cc2CC1=O`, which activity change, negative = cytotoxicity is on record?
Answer: -32.5% (inactive)

Question: Which activity change, negative = cytotoxicity does the source give for `C[C@H](CO)N1C[C@H](C)[C@H](CN(C)Cc2ccc(Oc3ccccc3)cc2)Oc2c(NC(=O)c3ccncc3)cccc2C1=O` here?
Answer: -12.3% (inactive)

Question: Which activity change, negative = cytotoxicity does the source give for `Cc1ccc(S(=O)(=O)N(C)C[C@@H]2Oc3ccc(NS(=O)(=O)c4ccccc4)cc3CC(=O)N([C@@H](C)CO)C[C@H]2C)cc1` here?
Answer: -8.95% (inactive)

Question: For `C[C@H]1CN([C@@H](C)CO)C(=O)c2cccc(NC(=O)c3nc4ccccc4s3)c2O[C@H]1CN(C)Cc1ccc2c(c1)OCO2`, which activity change, negative = cytotoxicity is on record?
Answer: -36.3% (inactive)

Question: Which activity change, negative = cytotoxicity does the source give for `C[C@@H]1CN([C@@H](C)CO)C(=O)c2cccc(NC(=O)c3ccncc3)c2O[C@@H]1CN(C)Cc1ccc(-c2ccccc2)cc1` here?
Answer: 19.3% (inactive)

Question: Which activity change, negative = cytotoxicity does the source give for `C[C@@H]1CN([C@@H](C)CO)C(=O)Cc2cc(NS(=O)(=O)c3ccccc3)ccc2O[C@@H]1CN(C)S(=O)(=O)c1ccc(Cl)cc1` here?
Answer: -12.4% (inactive)

Question: With `COc1ccc(CN(C)C[C@@H]2Oc3c(NC(=O)Nc4ccc(C(F)(F)F)cc4)cccc3C(=O)N([C@H](C)CO)C[C@@H]2C)cc1` as the compound, how does the activity change, negative = cytotoxicity read?
Answer: -21.3% (inactive)

Question: Which activity change, negative = cytotoxicity does the source give for `C[C@H]1CN([C@@H](C)CO)C(=O)Cc2cc(NS(=O)(=O)c3ccccc3)ccc2O[C@@H]1CN(C)S(=O)(=O)c1ccc(Cl)cc1` here?
Answer: -7.84% (inactive)

Question: For `C[C@H]1CN([C@@H](C)CO)C(=O)c2cccc(NC(=O)c3nc4ccccc4s3)c2O[C@H]1CN(C)S(=O)(=O)c1ccc(Cl)cc1`, which activity change, negative = cytotoxicity is on record?
Answer: 1.37% (inactive)

Question: Which activity change, negative = cytotoxicity does the source give for `Cc1ccc(S(=O)(=O)N(C)C[C@H]2Oc3c(NC(=O)c4nc5ccccc5s4)cccc3C(=O)N([C@H](C)CO)C[C@H]2C)cc1` here?
Answer: 14.1% (inactive)

Question: Which activity change, negative = cytotoxicity does the source give for `C[C@H](CO)N1C[C@H](C)[C@H](CN(C)Cc2ccc3c(c2)OCO3)Oc2c(NC(=O)c3nc4ccccc4s3)cccc2C1=O` here?
Answer: -1.97% (inactive)

Question: With `Cc1noc(C)c1NC(=O)Nc1cccc2c1O[C@@H](CN(C)S(C)(=O)=O)[C@H](C)CN([C@H](C)CO)C2=O` as the compound, how does the activity change, negative = cytotoxicity read?
Answer: -6.79% (inactive)

Question: For `C[C@H]1CN([C@@H](C)CO)C(=O)c2cccc(NC(=O)c3ccncc3)c2O[C@H]1CN(C)Cc1ccc(C(F)(F)F)cc1`, which activity change, negative = cytotoxicity is on record?
Answer: -30.7% (inactive)

Question: For `Cc1ccc(S(=O)(=O)N(C)C[C@H]2Oc3ccc(NS(=O)(=O)c4ccccc4)cc3CC(=O)N([C@H](C)CO)C[C@@H]2C)cc1`, which activity change, negative = cytotoxicity is on record?
Answer: -11.8% (inactive)

Question: For `C[C@H]1CN([C@@H](C)CO)C(=O)c2cccc(NC(=O)c3nc4ccccc4s3)c2O[C@@H]1CN(C)S(=O)(=O)c1ccc(Cl)cc1`, which activity change, negative = cytotoxicity is on record?
Answer: -9.43% (inactive)

Question: With `Cc1noc(C)c1NC(=O)Nc1cccc2c1O[C@@H](CN(C)S(C)(=O)=O)[C@@H](C)CN([C@H](C)CO)C2=O` as the compound, how does the activity change, negative = cytotoxicity read?
Answer: 13.3% (inactive)

Question: For `C[C@H](CO)N1C[C@H](C)[C@H](CN(C)S(=O)(=O)c2ccc(Cl)cc2)Oc2ccc(NS(=O)(=O)c3ccc(Cl)cc3)cc2CC1=O`, which activity change, negative = cytotoxicity is on record?
Answer: 7.06% (inactive)

Question: With `C[C@@H]1CN([C@@H](C)CO)C(=O)c2cccc(NC(=O)NC3CCCCC3)c2O[C@H]1CN(C)S(=O)(=O)c1ccc(F)cc1` as the compound, how does the activity change, negative = cytotoxicity read?
Answer: 12.1% (inactive)

Question: Which activity change, negative = cytotoxicity does the source give for `C[C@@H]1CN([C@@H](C)CO)C(=O)c2cccc(NC(=O)c3nc4ccccc4s3)c2O[C@@H]1CN(C)Cc1ccc2c(c1)OCO2` here?
Answer: 0.748% (inactive)

Question: With `C[C@H](CO)N1C[C@H](C)[C@@H](CN(C)Cc2ccc3c(c2)OCO3)Oc2c(NC(=O)c3ccncc3)cccc2C1=O` as the compound, how does the activity change, negative = cytotoxicity read?
Answer: -18.8% (inactive)

Question: Which activity change, negative = cytotoxicity does the source give for `Cc1ccc(S(=O)(=O)Nc2ccc3c(c2)CC(=O)N([C@H](C)CO)C[C@H](C)[C@H](CN(C)Cc2ccccc2)O3)cc1` here?
Answer: -17.1% (inactive)

Question: For `C[C@H](CO)N1C[C@H](C)[C@@H](CN(C)S(=O)(=O)c2ccc(F)cc2)Oc2c(NC(=O)NC3CCCCC3)cccc2C1=O`, which activity change, negative = cytotoxicity is on record?
Answer: 5.78% (inactive)

Question: For `C[C@H](CO)N1C[C@H](C)[C@@H](CN(C)S(=O)(=O)c2ccc(Cl)cc2)Oc2c(NC(=O)c3nc4ccccc4s3)cccc2C1=O`, which activity change, negative = cytotoxicity is on record?
Answer: 14.7% (inactive)

Question: Which activity change, negative = cytotoxicity does the source give for `C[C@@H]1CN([C@H](C)CO)C(=O)c2cccc(NC(=O)c3ccncc3)c2O[C@@H]1CN(C)Cc1ccccc1` here?
Answer: 4.84% (inactive)

Question: Which activity change, negative = cytotoxicity does the source give for `C[C@@H]1CN([C@@H](C)CO)C(=O)Cc2cc(NS(=O)(=O)c3ccccc3)ccc2O[C@H]1CN(C)S(=O)(=O)c1ccc(Cl)cc1` here?
Answer: 0.768% (inactive)

Question: With `Cc1ccc(S(=O)(=O)Nc2ccc3c(c2)CC(=O)N([C@H](C)CO)C[C@@H](C)[C@H](CN(C)Cc2ccc4c(c2)OCO4)O3)cc1` as the compound, how does the activity change, negative = cytotoxicity read?
Answer: 11% (inactive)

Question: Which activity change, negative = cytotoxicity does the source give for `C[C@H](CO)N1C[C@H](C)[C@H](CN(C)Cc2ccc3c(c2)OCO3)Oc2c(NC(=O)c3ccncc3)cccc2C1=O` here?
Answer: -7.03% (inactive)

Question: For `C[C@@H]1CN([C@@H](C)CO)C(=O)c2cccc(NC(=O)c3nc4ccccc4s3)c2O[C@H]1CN(C)Cc1ccc2c(c1)OCO2`, which activity change, negative = cytotoxicity is on record?
Answer: -20.2% (inactive)

Question: For `C[C@@H]1CN([C@H](C)CO)C(=O)c2cccc(NC(=O)c3ccncc3)c2O[C@H]1CN(C)Cc1ccccc1`, which activity change, negative = cytotoxicity is on record?
Answer: 9% (inactive)

Question: For `C[C@@H]1CN([C@@H](C)CO)C(=O)c2cccc(NC(=O)c3nc4ccccc4s3)c2O[C@H]1CN(C)S(=O)(=O)c1ccc(Cl)cc1`, which activity change, negative = cytotoxicity is on record?
Answer: -6.73% (inactive)

Question: With `COc1ccc(CN(C)C[C@@H]2Oc3c(NC(=O)c4ccncc4)cccc3C(=O)N([C@H](C)CO)C[C@H]2C)cc1` as the compound, how does the activity change, negative = cytotoxicity read?
Answer: -20.7% (inactive)

Question: With `Cc1ccc(S(=O)(=O)N(C)C[C@H]2Oc3ccc(NS(=O)(=O)c4ccccc4)cc3CC(=O)N([C@@H](C)CO)C[C@@H]2C)cc1` as the compound, how does the activity change, negative = cytotoxicity read?
Answer: 26% (inactive)

Question: With `C[C@@H]1CN([C@H](C)CO)C(=O)c2cccc(NC(=O)c3ccncc3)c2O[C@@H]1CN(C)Cc1ccc(Oc2ccccc2)cc1` as the compound, how does the activity change, negative = cytotoxicity read?
Answer: 14.7% (inactive)

Question: Which activity change, negative = cytotoxicity does the source give for `C[C@H]1CN([C@@H](C)CO)C(=O)c2cccc(NC(=O)c3ccncc3)c2O[C@@H]1CN(C)Cc1ccc(Oc2ccccc2)cc1` here?
Answer: -16.8% (inactive)

Question: For `C[C@@H]1CN([C@@H](C)CO)C(=O)c2cccc(NC(=O)c3ccncc3)c2O[C@H]1CN(C)CC1CC1`, which activity change, negative = cytotoxicity is on record?
Answer: -16.5% (inactive)

Question: Which activity change, negative = cytotoxicity does the source give for `C[C@H](CO)N1C[C@H](C)[C@H](CN(C)CC2CCCCC2)Oc2c(NC(=O)c3ccncc3)cccc2C1=O` here?
Answer: 2.09% (inactive)

Question: With `C[C@@H]1CN([C@@H](C)CO)C(=O)c2cccc(NC(=O)Nc3ccc(C(F)(F)F)cc3)c2O[C@H]1CN(C)Cc1ccc(Cl)c(Cl)c1` as the compound, how does the activity change, negative = cytotoxicity read?
Answer: -34.5% (inactive)

Question: With `C[C@H]1CN([C@@H](C)CO)C(=O)c2cccc(NC(=O)c3ccncc3)c2O[C@@H]1CN(C)Cc1ccc(Cl)c(Cl)c1` as the compound, how does the activity change, negative = cytotoxicity read?
Answer: -25.7% (inactive)

Question: With `C[C@@H]1CN([C@@H](C)CO)C(=O)c2cccc(NC(=O)NC3CCCCC3)c2O[C@@H]1CN(C)S(=O)(=O)c1ccc(F)cc1` as the compound, how does the activity change, negative = cytotoxicity read?
Answer: 21.4% (inactive)

Same assay, conditions: NIH/3T3 viability, ATP luminescence (CellTiter-Glo), 90 h; at 21 µM (top of the series)

Question: Which activity change, negative = cytotoxicity does the source give for `Cc1ccc(S(=O)(=O)N(C)C[C@H]2Oc3c(NC(=O)c4nc5ccccc5s4)cccc3C(=O)N([C@@H](C)CO)C[C@H]2C)cc1` here?
Answer: -14.2% (inactive)

Question: For `C[C@@H]1CN([C@@H](C)CO)C(=O)c2cccc(NC(=O)c3ccncc3)c2O[C@@H]1CN(C)Cc1ccc(Oc2ccccc2)cc1`, which activity change, negative = cytotoxicity is on record?
Answer: 31.2% (inactive)

Question: With `Cc1ccc(S(=O)(=O)N(C)C[C@H]2Oc3ccc(NS(=O)(=O)c4ccc(Cl)cc4)cc3CC(=O)N([C@@H](C)CO)C[C@H]2C)cc1` as the compound, how does the activity change, negative = cytotoxicity read?
Answer: -13.4% (inactive)

Question: For `Cc1ccc(S(=O)(=O)Nc2ccc3c(c2)CC(=O)N([C@H](C)CO)C[C@H](C)[C@H](CN(C)S(=O)(=O)c2ccc(Cl)cc2)O3)cc1`, which activity change, negative = cytotoxicity is on record?
Answer: -27.3% (inactive)

Question: Which activity change, negative = cytotoxicity does the source give for `C[C@H](CO)N1C[C@H](C)[C@H](CN(C)S(=O)(=O)c2ccc(Cl)cc2)Oc2ccc(NS(=O)(=O)c3ccccc3)cc2CC1=O` here?
Answer: -11.3% (inactive)

Question: Which activity change, negative = cytotoxicity does the source give for `C[C@@H]1CN([C@H](C)CO)C(=O)c2cccc(NC(=O)c3ccncc3)c2O[C@H]1CN(C)Cc1ccc(C(F)(F)F)cc1` here?
Answer: -18.8% (inactive)

Question: For `Cc1ccc(S(=O)(=O)N(C)C[C@H]2Oc3ccc(NS(=O)(=O)c4ccccc4)cc3CC(=O)N([C@@H](C)CO)C[C@H]2C)cc1`, which activity change, negative = cytotoxicity is on record?
Answer: -30.2% (inactive)

Question: With `Cc1ccc(S(=O)(=O)N(C)C[C@@H]2Oc3ccc(NS(=O)(=O)c4ccc(Cl)cc4)cc3CC(=O)N([C@H](C)CO)C[C@@H]2C)cc1` as the compound, how does the activity change, negative = cytotoxicity read?
Answer: -5.69% (inactive)

Question: For `Cc1ccc(S(=O)(=O)N(C)C[C@@H]2Oc3ccc(NS(=O)(=O)c4ccc(Cl)cc4)cc3CC(=O)N([C@@H](C)CO)C[C@@H]2C)cc1`, which activity change, negative = cytotoxicity is on record?
Answer: 11.5% (inactive)
